Results reported in patent US4380644A, “2-Oxoimidazolidine derivatives” (Tanabe Siyaku Co., Ltd., priority 1980, dated 1983).

Experiments:
[1] = target: T1, angiotensin-converting enzyme (ACE) (Rattus norvegicus, UniProt P47820); assay: ACE-inhibitory activity in vivo (pressor response to angiotensin I); conditions: 1.0 mg/kg orally, anesthetized normotensive rats; for Duration of action: ACE inhibition; for inhibition at 1 mg/kg: rat, read-out: ACE-inhibitory activity (%), percentage inhibition of ACE-activity in vivo
T1 construct: Normotensive rats were anesthetized with urethane; from tissue; host or cells: endogenous enzyme of the whole living animal (normotensive rats, in vivo)
T1 sequence (P47820 36-1313): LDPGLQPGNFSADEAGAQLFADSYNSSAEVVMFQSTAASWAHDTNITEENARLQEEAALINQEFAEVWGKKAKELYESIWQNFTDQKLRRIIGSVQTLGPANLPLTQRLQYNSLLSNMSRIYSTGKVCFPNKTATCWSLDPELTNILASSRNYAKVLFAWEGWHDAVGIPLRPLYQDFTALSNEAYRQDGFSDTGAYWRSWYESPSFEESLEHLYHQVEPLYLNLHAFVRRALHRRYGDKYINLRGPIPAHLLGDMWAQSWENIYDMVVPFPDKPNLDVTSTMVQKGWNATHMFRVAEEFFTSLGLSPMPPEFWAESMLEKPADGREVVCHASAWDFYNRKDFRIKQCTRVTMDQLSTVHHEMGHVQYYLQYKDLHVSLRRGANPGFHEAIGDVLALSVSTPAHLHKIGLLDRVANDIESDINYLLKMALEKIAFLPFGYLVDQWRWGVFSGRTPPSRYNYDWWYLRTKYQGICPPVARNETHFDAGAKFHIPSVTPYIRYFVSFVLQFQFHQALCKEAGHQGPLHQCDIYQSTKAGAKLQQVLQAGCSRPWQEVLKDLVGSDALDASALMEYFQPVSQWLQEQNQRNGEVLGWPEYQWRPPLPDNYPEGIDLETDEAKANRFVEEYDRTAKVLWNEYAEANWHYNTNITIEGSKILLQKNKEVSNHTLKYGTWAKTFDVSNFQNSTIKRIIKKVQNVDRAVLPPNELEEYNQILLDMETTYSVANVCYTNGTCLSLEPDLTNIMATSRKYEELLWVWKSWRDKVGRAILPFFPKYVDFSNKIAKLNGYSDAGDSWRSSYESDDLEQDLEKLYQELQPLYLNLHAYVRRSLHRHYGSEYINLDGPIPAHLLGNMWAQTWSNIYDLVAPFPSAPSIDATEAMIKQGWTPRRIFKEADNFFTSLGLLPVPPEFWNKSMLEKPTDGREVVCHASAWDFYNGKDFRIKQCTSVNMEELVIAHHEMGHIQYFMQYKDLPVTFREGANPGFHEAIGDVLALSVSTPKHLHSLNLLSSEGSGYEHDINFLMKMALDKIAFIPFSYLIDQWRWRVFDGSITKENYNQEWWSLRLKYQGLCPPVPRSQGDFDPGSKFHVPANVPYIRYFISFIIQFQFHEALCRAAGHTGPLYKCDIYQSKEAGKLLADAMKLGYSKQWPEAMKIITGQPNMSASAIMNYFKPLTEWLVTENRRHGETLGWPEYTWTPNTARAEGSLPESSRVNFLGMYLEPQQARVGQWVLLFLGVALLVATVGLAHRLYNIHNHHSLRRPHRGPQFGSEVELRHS
Procedure: ACE-inhibitory activity in vivo:
Normotensive rats were anesthetized with urethane (1.5 g/kg, s.c.), and agiotensin I (75~300 ng/kg) was injected into the femoral vein of the rates. The pressor response to angiotensin I was measured with a pressure transducer connected to the carotid artery. Then, a test compound was administered orally thereto at a dose of 1.0 mg/kg, and angiotensin I (300 ng/kg) was further injected intravenously at intervals. The ACE-inhibitory activity of the test compound was estimated from the pressor responses to angiotensin I which were obtained before and after oral administration of the test compound.

[2] = test system: spontaneously hypertensive rats (SHR); assay: Hypotensive activity in SHR; assay type: in vivo; conditions: 50 mg/kg orally; for Decrease in blood pressure (-ΔmmHg): SHR fasted overnight, systolic blood pressure, tail plethysmography
Procedure: Hypotensive activity in SHR:
A test compound suspended in an aqueous carboxymethylcellulose solution was administered orally to spontaneously hypertensive rats (SHR) fasted overnight. The systolic blood pressure of the rats was measured by the tail plethysmographic technique (The Journal of Laboratory and Clicical Medicine 78 (1971), page 957). The hypotensive activity of the test compound was estimated from the decreased level of blood pressure.

mice = assay: Toxicity after oral administration to mice; assay type: in vivo; conditions: 3 g/kg orally
Procedure: For example, when (4S)-1-benzyl- 3-[(2S)-3-benzoylthio-2-methylpropionyl]-2-oxo-imidazolidine-4-carboxylic acid was administered orally to mice at a dose of 3 g/kg, no mouse died within 7 days after said administration.

| Structure (SMILES) | Duration of action [1] | inhibition at 1 mg/kg ([1]; angiotensin I 300 ng/kg i.v.) | Decrease in blood pressure (-ΔmmHg) [2] | Decrease in blood pressure (-ΔmmHg) ([2]; listed as (4S)-1-benzyl-3-[(2S)-3-benzoylthio-2-methylpropionyl]-2-oxo-imidazolidine-4-car) | Duration of action ([2]; hypotensive activity, SHR, 50 mg/kg) | Duration of action (hours) ([2]; hypotensive activity, SHR, listed as (4S)-1-benzyl-3-[(2S)-3-benzoylthio-2-methylpropionyl]-2-oxo-imidazolidine-4-car, 50 mg/kg) | Mortality within 7 days after administration (mice) | ACE-inhibitory activity (%), percentage inhibition of ACE-activity in vivo ([1]; angiotensin I 300 ng/kg i.v.) | Duration of action ([2]; hypotensive activity, SHR) |
| --- | --- | --- | --- | --- | --- | --- | --- | --- | --- |
| CCN1C[C@@H](C(=O)O)N(C(=O)[C@H](C)CSC(=O)c2ccccc2)C1=O [C2 H5 C6 H5, (4S)-1-ethyl-3-[(2S)-3-benzoylthio-2-methylpropionyl]-2-oxo-imidazolidine-4-carboxylic acid] | > 120 min | 84% |  |  |  |  |  |  |  |
| C[C@H](CSC(=O)c1ccccc1)C(=O)N1C(=O)N(Cc2ccccc2)C[C@H]1C(=O)O [C6 H5 CH2 C6 H5, (4S)-1-benzyl-3-[(2S)-3-benzoylthio-2-methylpropionyl]-2-oxo-imidazolidine-4-carboxylic acid] | > 120 min | 76% | 44 mmHg | about 44 mmHg | > 6 h | more than 6 hours | no mouse died |  |  |
| C[C@H](CSC(=O)c1ccccc1)C(=O)N1C(=O)N(C)C[C@H]1C(=O)O [CH3 C6 H5, (4S)-1-methyl-3-[(2S)-3-benzoylthio-2-methylpropionyl]-2-oxo-imidazolidine-4-carboxylic acid] | > 120 min | 88% |  |  |  |  |  | about 90% |  |
| CC(=O)SC[C@@H](C)C(=O)N1C(=O)N(C)C[C@H]1C(=O)O [CH3 CH3, (4S)-1-methyl-3-[(2S)-3-acetylthio-2-methylpropionyl]-2-oxo-imidazolidine-4-carboxylic acid] | > 120 min | 67% | 37 mmHg |  |  |  |  |  | > 6 h |
